# Assay results as given in patent publication US7264921B2, “No synthase assay particles and method” (GE Healthcare UK Limited, priority 2001, dated 2007).
# Where a name gives a salt, the structure may show the parent alone.
# Key:
# [1] = target: T1, iNOS (Mus musculus, UniProt P29477); test: iNOS enzyme assay, competition experiment I (LEADseeker beads, 14C arginine); assay type: biochemical, murine; design: purchased Cayman Chemical Company 60864; settings: from dose response curve FIG. 8; 1 hour room temperature; read-out: IC50 (50% inhibition of the enzyme)
# Method: The preferential capture of arginine compared to citrulline can be utilised in a signal decrease assay. The assay is performed in a 3074 Costar 384 well plate Enzyme (iNOS murine macrophage, recombinant. Cayman catalogue no. 60864, 112 units/ml) is diluted 10 times in assay buffer (1.2 mM NADPH, 3.6 mM DTT, 4.8 uM FAD, 4.8 uM FMN, 4.8 uM biopterin in 50 mM TRIS pH 7.5. Diluted enzyme (10 μl) is incubated with 1.5 μl inhibitor/agonist dissolved in 100% DMSO along with 10 μl ^14C arginine tracer (APBiotech, CFB63, 300 mCi/mMol stock solution diluted in assay buffer to 100,000-150,000 cpm in 10 μl) for 1 hour at room temperature, protected from light. 10 μl LEADseeker beads suspended in a “stop” solution (360 μM aminoguanidine, 20 mM EDTA, pH 8) to 100 mg/ml (i.e 10 μl=1 mg/well) are added and the mixture incubated at room temperature for at least 2 hours. Control reactions were carried out by replacing the inhibitor with 1.5 μl water. The results are read by counting in LEADseeker™ (binning at 2×2, Q coincidence and imaged for 5 mins).
# The baseline was determined using 1.5 μl 1 mM aminoguanidine (final concentration 70 μM) and maximum response using 1.5 μl 30 mM aminoguanidine (final concentration).
# [2] = target: T1, iNOS; test: biochemical
# Method: Reaction conditions and data measurement were as described in Example 3 above, using 10 μl of iNOS (Cayman Chemical Company, Catalogue Number 60864) enzyme equivalent to 0.038 units/well.
# The assay conditions were as described in Example 4 above employing a range of inhibitor concentrations.
# [3] = target: T1, iNOS; test: iNOS SPA enzyme assay, effect of solvents; assay type: biochemical, murine; design: purchased Cayman Chemical Company 60864; settings: for Time (mins) cpm, 0: 0 min; for Time (mins) cpm, 5: 5 min; for Time (mins) cpm, 10: 10 min; for Time (mins) cpm, 20: 20 min; for % change in ratio: versus water
# Method: The effect of using different solvents to dissolve test inhibitor compounds was tested, using the assay conditions as described in Example 4 above. […] Appropriate ‘experimental controls’ should therefore be used in all experiments.
SMILES,IC50 [1],IC50 [2],Ratio Time 0/20 mins ([3]; 1% solvent),"Time (mins) cpm, 0 ([3]; 1% solvent)","Time (mins) cpm, 5 ([3]; 1% solvent)","Time (mins) cpm, 10 ([3]; 1% solvent)","Time (mins) cpm, 20 ([3]; 1% solvent)",% change in ratio ([3]; 1% solvent),Ratio Time 0/20 mins ([3]; 5% solvent),"Time (mins) cpm, 0 ([3]; 5% solvent)","Time (mins) cpm, 5 ([3]; 5% solvent)","Time (mins) cpm, 10 ([3]; 5% solvent)","Time (mins) cpm, 20 ([3]; 5% solvent)",% change in ratio ([3]; 5% solvent),Ratio Time 0/20 mins ([3]; 10% solvent),"Time (mins) cpm, 0 ([3]; 10% solvent)","Time (mins) cpm, 5 ([3]; 10% solvent)","Time (mins) cpm, 10 ([3]; 10% solvent)","Time (mins) cpm, 20 ([3]; 10% solvent)",% change in ratio ([3]; 10% solvent)
N=C(N)NN [aminoguanidine],~500 µM,,,,,,,,,,,,,,,,,,,
"CCSC(=N)N [SEITU, 2-ethyl-2-thiopseudourea hydrobromide]",,0.032 µM,,,,,,,,,,,,,,,,,,
CCO [ethanol],,,6.57,13409 cpm,9004 cpm,5580 cpm,2040 cpm,8%,4.19,13248 cpm,7465 cpm,6596 cpm,3161 cpm,41%,3.23,12008 cpm,6316 cpm,5987 cpm,3715 cpm,54%
CO [methanol],,,7.56,14914 cpm,8639 cpm,4989 cpm,1973 cpm,,7.13,15317 cpm,7939 cpm,5466 cpm,2147 cpm,,6.32,12488 cpm,6631 cpm,4698 cpm,1975 cpm,10%
C[S+](C)[O-] [DMSO],,,6.39,10324 cpm,7128 cpm,4330 cpm,1615 cpm,10%,5.12,8530 cpm,4166 cpm,4453 cpm,1665 cpm,28%,3.10,6630 cpm,3884 cpm,3666 cpm,2138 cpm,56%
CC(C)=O [acetone],,,6.54,12884 cpm,8509 cpm,5169 cpm,1971 cpm,8%,4.78,12431 cpm,8409 cpm,6708 cpm,2601 cpm,33%,3.19,10201 cpm,6255 cpm,6464 cpm,3193 cpm,55%
